Assays:
Test in all cases: Test B pre-/postemergence plant response
Type in all cases: in vivo
[1] = system: goosegrass (Eleusine indica)
How it was run: (§1)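 Test compounds, formulated in a non-phytotoxic solvent mixture with surfactant, are applied to the soil surface (loam and sand blend) right after seeding, or sprayed over plants at the 1- to 4-leaf stage grown in peat moss/vermiculite medium. After 13 to 15 days under glasshouse conditions, each species is scored visually from 0 (no effect) to 100 (complete control) against controls.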

[2] = system: cocklebur (Xanthium strumarium)
How it was run: as §1

[3] = system: large crabgrass (Digitaria sanguinalis)
How it was run: as §1

[4] = system: giant foxtail (Setaria faberii)
How it was run: as §1

[5] = system: downy bromegrass (Bromus tectorum)
How it was run: as §1

[6] = system: johnsongrass (Sorghum halepense)
How it was run: as §1

[7] = system: blackgrass (Alopecurus myosuroides)
How it was run: as §1

kochia (Kochia scoparia) = system: kochia (Kochia scoparia)
How it was run: as §1

[8] = system: velvetleaf (Abutilon theophrasti)
How it was run: as §1

[9] = system: yellow nutsedge (Cyperus esculentus)
How it was run: as §1

[10] = system: Surinam grass (Brachiaria decumbens)
How it was run: as §1

[11] = system: green foxtail (Setaria viridis)
How it was run: as §1

[12] = system: woolly cupgrass (Eriochloa villosa)
How it was run: as §1

soybean (Glycine max) = system: soybean (Glycine max)
How it was run: as §1

corn (Zea mays) = system: corn (Zea mays)
How it was run: as §1

[13] = system: morningglory (Ipomoea coccinea)
How it was run: as §1

wild oat (Avena fatua) = system: wild oat (Avena fatua)
How it was run: as §1

[14] = 31 g ai/ha, postemergence, scale 0 to 100, 0 is no effect, 100 is complete control
[15] = 250 g ai/ha, Preemergence, 0 to 100 scale
[16] = Postemergence, 62 g ai/ha, scale 0 (no effect) to 100 (complete control), 13 to 15 days
[17] = Postemergence, 125 g ai/ha, visual rating after 13 to 15 days, scale 0 (no effect) to 100 (complete control)
[18] = Postemergence, 250 g ai/ha, scale 0 to 100 (0 no effect, 100 complete control)
[19] = Preemergence, 31 g ai/ha, scale 0 to 100 (0 no effect, 100 complete control)
[20] = Preemergence, 62 g ai/ha, scale 0 to 100, 0 no effect, 100 complete control
[21] = Preemergence, 125 g ai/ha, scale 0 to 100, 0 no effect, 100 complete control

Cc1ccc(Cl)cc1-n1c(-c2ccccc2)ncc(C(=O)C2=C(O)CCCC2=O)c1=O [Compound 52]
Plant response rating, Goosegrass [1, 14]: 75 | Plant response rating, Goosegrass [1, 15]: 100 | Plant response rating, Goosegrass [1, 16]: 80 | Plant response rating, Goosegrass [1, 17]: 85 | Plant response rating, Goosegrass [1, 18]: 85 | Plant response rating, Goosegrass [1, 19]: 98 | Plant response rating, Goosegrass [1, 20]: 100 | Plant response rating, Goosegrass [1, 21]: 100 | Plant response rating, Cocklebur [2, 14]: 75 | Plant response rating, Cocklebur [2, 15]: 75 | Plant response rating, Cocklebur [2, 16]: 85 | Plant response rating, Cocklebur [2, 17]: 85 | Plant response rating, Cocklebur [2, 18]: 85 | Plant response rating, Cocklebur [2, 19]: 0 | Plant response rating, Cocklebur [2, 20]: 0 | Plant response rating, Cocklebur [2, 21]: 10 | Plant response rating, Crabgrass, Large [3, 14]: 85 | Plant response rating, Crabgrass, Large [3, 15]: 100 | Plant response rating, Crabgrass, Large [3, 16]: 90 | Plant response rating, Crabgrass, Large [3, 17]: 90 | Plant response rating, Crabgrass, Large [3, 18]: 98 | Plant response rating, Crabgrass, Large [3, 19]: 60 | Plant response rating, Crabgrass, Large [3, 20]: 98 | Plant response rating, Crabgrass, Large [3, 21]: 100 | Plant response rating, Foxtail, Giant [4, 14]: 80 | Plant response rating, Foxtail, Giant [4, 15]: 75 | Plant response rating, Foxtail, Giant [4, 16]: 80 | Plant response rating, Foxtail, Giant [4, 17]: 90 | Plant response rating, Foxtail, Giant [4, 18]: 90 | Plant response rating, Foxtail, Giant [4, 19]: 0 | Plant response rating, Foxtail, Giant [4, 20]: 15 | Plant response rating, Foxtail, Giant [4, 21]: 25 | Plant response rating, Bromegrass, Downy [5, 14]: 50 | Plant response rating, Bromegrass, Downy [5, 15]: 5 | Plant response rating, Bromegrass, Downy [5, 16]: 55 | Plant response rating, Bromegrass, Downy [5, 17]: 60 | Plant response rating, Bromegrass, Downy [5, 18]: 70 | Plant response rating, Bromegrass, Downy [5, 19]: 0 | Plant response rating, Bromegrass, Downy [5, 20]: 5 | Plant response rating, Bromegrass, Downy [5, 21]: 5 | Plant response rating, Johnsongrass [6, 14]: 75 | Plant response rating, Johnsongrass [6, 15]: 95 | Plant response rating, Johnsongrass [6, 16]: 85 | Plant response rating, Johnsongrass [6, 17]: 90 | Plant response rating, Johnsongrass [6, 18]: 95 | Plant response rating, Johnsongrass [6, 19]: 10 | Plant response rating, Johnsongrass [6, 20]: 75 | Plant response rating, Johnsongrass [6, 21]: 90 | Plant response rating, Blackgrass [7, 14]: 5 | Plant response rating, Blackgrass [7, 15]: 10 | Plant response rating, Blackgrass [7, 16]: 5 | Plant response rating, Blackgrass [7, 17]: 25 | Plant response rating, Blackgrass [7, 18]: 30 | Plant response rating, Blackgrass [7, 19]: 0 | Plant response rating, Blackgrass [7, 20]: 0 | Plant response rating, Blackgrass [7, 21]: 0 | Plant response rating, Kochia (kochia (Kochia scoparia); [14]): 20 | Plant response rating, Kochia (kochia (Kochia scoparia); [16]): 25 | Plant response rating, Kochia (kochia (Kochia scoparia); [17]): 55 | Plant response rating, Kochia (kochia (Kochia scoparia); [18]): 65 | Plant response rating, Velvetleaf [8, 14]: 95 | Plant response rating, Velvetleaf [8, 15]: 100 | Plant response rating, Velvetleaf [8, 16]: 98 | Plant response rating, Velvetleaf [8, 17]: 98 | Plant response rating, Velvetleaf [8, 18]: 100 | Plant response rating, Velvetleaf [8, 19]: 80 | Plant response rating, Velvetleaf [8, 20]: 98 | Plant response rating, Velvetleaf [8, 21]: 98 | Plant response rating, Nutsedge, Yellow [9, 14]: 20 | Plant response rating, Nutsedge, Yellow [9, 15]: 90 | Plant response rating, Nutsedge, Yellow [9, 16]: 25 | Plant response rating, Nutsedge, Yellow [9, 17]: 45 | Plant response rating, Nutsedge, Yellow [9, 18]: 65 | Plant response rating, Nutsedge, Yellow [9, 19]: 0 | Plant response rating, Nutsedge, Yellow [9, 20]: 25 | Plant response rating, Nutsedge, Yellow [9, 21]: 80 | Plant response rating, Surinam Grass [10, 14]: 75 | Plant response rating, Surinam Grass [10, 15]: 98 | Plant response rating, Surinam Grass [10, 16]: 85 | Plant response rating, Surinam Grass [10, 17]: 90 | Plant response rating, Surinam Grass [10, 18]: 98 | Plant response rating, Surinam Grass [10, 19]: 10 | Plant response rating, Surinam Grass [10, 20]: 25 | Plant response rating, Surinam Grass [10, 21]: 95 | Plant response rating, Foxtail, Green [11, 14]: 95 | Plant response rating, Foxtail, Green [11, 15]: 100 | Plant response rating, Foxtail, Green [11, 16]: 98 | Plant response rating, Foxtail, Green [11, 17]: 98 | Plant response rating, Foxtail, Green [11, 18]: 100 | Plant response rating, Foxtail, Green [11, 19]: 0 | Plant response rating, Foxtail, Green [11, 20]: 30 | Plant response rating, Foxtail, Green [11, 21]: 45 | Plant response rating, Cupgrass, Woolly [12, 14]: 70 | Plant response rating, Cupgrass, Woolly [12, 15]: 80 | Plant response rating, Cupgrass, Woolly [12, 16]: 75 | Plant response rating, Cupgrass, Woolly [12, 17]: 85 | Plant response rating, Cupgrass, Woolly [12, 18]: 95 | Plant response rating, Cupgrass, Woolly [12, 19]: 0 | Plant response rating, Cupgrass, Woolly [12, 20]: 10 | Plant response rating, Cupgrass, Woolly [12, 21]: 65 | Plant response rating, Soybean (soybean (Glycine max); [14]): 80 | Plant response rating, Soybean (soybean (Glycine max); [15]): 80 | Plant response rating, Soybean (soybean (Glycine max); [16]): 95 | Plant response rating, Soybean (soybean (Glycine max); [17]): 95 | Plant response rating, Soybean (soybean (Glycine max); [18]): 98 | Plant response rating, Soybean (soybean (Glycine max); [19]): 0 | Plant response rating, Soybean (soybean (Glycine max); [20]): 0 | Plant response rating, Soybean (soybean (Glycine max); [21]): 55 | Plant response rating, Corn (corn (Zea mays); [14]): 30 | Plant response rating, Corn (corn (Zea mays); [15]): 0 | Plant response rating, Corn (corn (Zea mays); [16]): 45 | Plant response rating, Corn (corn (Zea mays); [17]): 65 | Plant response rating, Corn (corn (Zea mays); [18]): 80 | Plant response rating, Corn (corn (Zea mays); [19]): 0 | Plant response rating, Corn (corn (Zea mays); [20]): 0 | Plant response rating, Corn (corn (Zea mays); [21]): 0 | Plant response rating, Morningglory [13, 14]: 10 | Plant response rating, Morningglory [13, 15]: 55 | Plant response rating, Morningglory [13, 16]: 45 | Plant response rating, Morningglory [13, 17]: 75 | Plant response rating, Morningglory [13, 18]: 85 | Plant response rating, Morningglory [13, 19]: 0 | Plant response rating, Morningglory [13, 20]: 0 | Plant response rating, Morningglory [13, 21]: 45 | Plant response rating, Oat, Wild (wild oat (Avena fatua); [14]): 90 | Plant response rating, Oat, Wild (wild oat (Avena fatua); [15]): 60 | Plant response rating, Oat, Wild (wild oat (Avena fatua); [16]): 90 | Plant response rating, Oat, Wild (wild oat (Avena fatua); [17]): 95 | Plant response rating, Oat, Wild (wild oat (Avena fatua); [18]): 95 | Plant response rating, Oat, Wild (wild oat (Avena fatua); [19]): 0 | Plant response rating, Oat, Wild (wild oat (Avena fatua); [20]): 5 | Plant response rating, Oat, Wild (wild oat (Avena fatua); [21]): 5

From patent US8952024B2, “Herbicidal pyrimidone derivatives” (E I du Pont de Nemours and Company, priority 2009, dated 2015)
